Laboratory results reported in patent publication US6521635B1, “Inhibition of MXR transport by acridine derivatives” (priority 2000, dated 2003).
Where two headings read alike, the source gives them in different places.

Key:
[1] = system: S1-M1-80 cells expressing MXR; assay: In vitro cytotoxicity assay (sulforhodamine B staining); type: cell-based, human; details: for IC50: Homo sapiens, S1-M1-80, 96 h; for RR (relative resistance): S1-M1-80 cells relative to S1 parental; for DMF +0.5 μM GF120918: IC50 without / IC50 with 0.5 μM GF120918; for DMF +1.0 μM GF120918: IC50 without / IC50 with 1.0 μM GF120918
Experimental: (§1) Reversal of resistance was determined in cytotoxicity assays using the sulforhodamine staining (Skehan et al. (1990) J. Natl. […] Briefly, cells were harvested and seeded at a density of 2000 cells/well for the colon cancer lines and 4000 cells/well for the breast cancer cell lines in flat-bottom 96-well plates. The cells were incubated for 24 h at 37° C. to allow attachment prior to addition of the drugs. […] Each concentration was tested in triplicate and the controls were done in replicates of eight. Results are representative of from three to six experiments. […] After incubation, the cells were fixed in TCA and stained with sulforhodamine B (SRB) solution (0.4% wt/vol in 1% acetic acid) (Sigma Chemical, St Louis, Mo.). Optical densities were read on a Bio-Rad plate reader (Hercules, Calif.) at an absorbance of 540 nm.

[2] = system: S1-B1-20 Pgp-overexpressing cells; assay: as above; type: cell-based, human; details: for IC50: Homo sapiens, S1B1-20, 96 h; for RR (relative resistance): S1-B1-20 cells relative to S1 parental; for DMF +0.5 μM GF120918 / DMF +1.0 μM GF120918 / relative resistance: S1-B1-20 cells; for DMF +0.5 μM GF120918: IC50 without / IC50 with 0.5 μM GF120918; for DMF +1.0 μM GF120918: IC50 without / IC50 with 1.0 μM GF120918
Experimental: as §1

S1 parental cells = assay: as above; type: cell-based, human; details: for IC50: Homo sapiens; for DMF +0.5 μM GF120918 / DMF +1.0 μM GF120918: S1 cells; for DMF +0.5 μM GF120918: IC50 without / IC50 with 0.5 μM GF120918; for DMF +1.0 μM GF120918: IC50 without / IC50 with 1.0 μM GF120918
Experimental: as §1

MCF-7 parental cells = assay: as above; type: cell-based, human; details: for IC50: Homo sapiens, MCF7, 96 h
Experimental: as §1

MXR (S1-M1-80 cells) = target: T1, MXR (S1-M1-80 cells) (Homo sapiens, UniProt Q9UNQ0, R482G); assay: Rhodamine efflux assay (flow cytometry); type: cell-based
T1 construct: express high levels of a mitoxantrone transporter (Miyake et al. (1999) Cancer Res.59: 8-13); endogenous in cells; host or cells: S1-M1-80 (mitoxantrone-selected subline of S1 colon carcinoma cells)
T1 sequence (Q9UNQ0 1-655 R482G): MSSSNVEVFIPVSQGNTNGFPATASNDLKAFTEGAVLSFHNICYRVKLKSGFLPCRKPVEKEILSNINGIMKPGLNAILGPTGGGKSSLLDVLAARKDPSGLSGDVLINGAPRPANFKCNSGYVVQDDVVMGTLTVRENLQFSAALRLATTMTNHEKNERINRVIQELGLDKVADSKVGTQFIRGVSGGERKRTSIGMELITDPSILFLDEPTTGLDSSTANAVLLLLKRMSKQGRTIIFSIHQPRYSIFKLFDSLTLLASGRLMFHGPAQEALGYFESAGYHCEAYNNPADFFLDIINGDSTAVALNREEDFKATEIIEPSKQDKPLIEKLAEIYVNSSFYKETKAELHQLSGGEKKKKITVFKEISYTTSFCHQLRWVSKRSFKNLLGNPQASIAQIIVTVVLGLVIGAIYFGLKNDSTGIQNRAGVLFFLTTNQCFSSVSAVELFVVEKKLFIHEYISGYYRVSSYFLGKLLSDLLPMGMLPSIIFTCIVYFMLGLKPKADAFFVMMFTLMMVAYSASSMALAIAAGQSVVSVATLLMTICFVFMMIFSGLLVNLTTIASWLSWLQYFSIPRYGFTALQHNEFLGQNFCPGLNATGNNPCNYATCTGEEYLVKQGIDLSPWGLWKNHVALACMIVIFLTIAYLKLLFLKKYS
Experimental: To provide confirmation, rhodamine efflux assays were performed. […] The results are depicted in FIG. 2.

[3] = system: S1 parental cells (low endogenous level of Pgp); assay: Rhodamine efflux assay (flow cytometry); type: cell-based, human
Experimental: The rhodamine and calcein efflux assays were performed as previously described with minor modifications (Lee et al. (1994) Mol. Pharmacol. 46: 627-638; Versantvoort et al. (1995) Int. J. Cancer 63: 855-862.) Suspensions of logarithmic phase cells were obtained from tissue culture flasks by trypsinization and transferred into round-bottom 96-well plates. […] After the efflux period, the cells were washed with DPBS and placed on ice. A FACSort flow cytometer (Becton Dickinson, San Jose, Calif.) with a 488-nm argon laser was used to analyze the samples. Rhodamine 123 or calcein fluorescence was collected after a 530 nm bandpass filter. A minimum of 10,000 events was collected per sample and the samples were gated on forward scatter versus side scatter to exclude clumps and debris; dead cells were excluded based on propidium iodide staining.
To provide confirmation, rhodamine efflux assays were performed. […] After an accumulation and efflux period, rhodamine fluorescence was quantitated by flow cytometric analysis. The results are depicted in FIG. 2. […] PSC 833, a cyclosporin-D analog, was used as a positive control for Pgp antagonism.

[4] = S1-M1-80 cells, chemotherapy drug without GF120918, 96 h, read-out: IC50
[5] = read-out: IC50 +0.5 μM GF120918, S1-M1-80 cells, with 0.5 μM GF120918, 96 h
[6] = read-out: IC50 +0.5 μM GF120918
[7] = read-out: IC50 +1.0 μM GF120918
[8] = 96 h, read-out: IC50 +0.5 μM GF120918
[9] = 96 h, read-out: IC50 +1.0 μM GF120918

SMILES	IC50 [1, 4] [nM]	IC50 [1, 5] [nM]	RR (relative resistance) [1]	DMF +0.5 μM GF120918 ([1]; S1-M1-80 cells)	DMF +1.0 μM GF120918 ([1]; S1-M1-80 cells)	IC50 [2, 6] [nM]	IC50 [2, 7] [nM]	IC50 ([2]; read-out: IC50) [nM]	RR (relative resistance) [2]	DMF +0.5 μM GF120918 [2]	DMF +1.0 μM GF120918 [2]	IC50 (S1 parental cells; [8]) [nM]	IC50 (S1 parental cells; [9]) [nM]	IC50 (S1 parental cells; 96 h, read-out: IC50) [nM]	DMF +0.5 μM GF120918 (S1 parental cells)	DMF +1.0 μM GF120918 (S1 parental cells)	relative resistance ([1]; S1-M1-80 cells) [fold]	relative resistance [2] [fold]	also measured
O=C1c2c(O)ccc(O)c2C(=O)c2c(NCCNCCO)ccc(NCCNCCO)c21 [Mitoxantrone]	222000 ± 101000	1570 ± 950	35806	141	1850	15 ± 5.6	13 ± 6.6	410 ± 610	66	27	31	5.3 ± 4.3	5.2 ± 4.4	6.2 ± 4.7	1.2	1.2			IC50 ([1]; read-out: IC50 +1.0 μM GF120918, S1-M1-80 cells, with 1.0 μM GF120918, 96 h): 120 ± 110 nM; IC50 (MCF-7 parental cells; [6]): 5.7 ± 7.3 nM; IC50 (MCF-7 parental cells; [7]): 5.6 ± 8.1 nM; IC50 (MCF-7 parental cells; read-out: IC50): 25 ± 19 nM; DMF (Dose Modifying Factor) +0.5 μM GF120918 (MCF-7 parental cells; MCF-7 cells, IC50 without / IC50 with 0.5 μM GF120918): 4.4; DMF +1.0 μM GF120918 (MCF-7 parental cells; MCF-7 cells, IC50 without / IC50 with 1.0 μM GF120918): 4.4
C/C=C/C[C@@H](C)C(=O)[C@H]1C(=O)N[C@@H](C(C)C)C(=O)N(C)CC(=O)N(C)[C@@H](CC(C)C)C(=O)N[C@@H](C(C)C)C(=O)N(C)[C@@H](CC(C)C)C(=O)N[C@@H](C)C(=O)N[C@H](C)C(=O)N(C)[C@@H](CC(C)C)C(=O)N(C)[C@@H](CC(C)C)C(=O)N(C)[C@@H](C(C)C)C(=O)N1C [PSC 833]																			antagonism of MXR (MXR (S1-M1-80 cells)): not an effective antagonist for MXR; effect on rhodamine accumulation and efflux [3]: small increase in rhodamine accumulation and a decrease in efflux
CC[C@@]1(O)C(=O)OCc2c1cc1n(c2=O)Cc2cc3c(CN(C)C)c(O)ccc3nc2-1 [topotecan]	12000 ± 5000	2000	334	6	23	40	27 ± 5	160 ± 50	4.4	4	5.9	34	25 ± 7	36 ± 8.5	1.0	1.4	334	4.4	IC50 (S1 parental cells; read-out: IC50): 36 nM
CC(=O)O[C@H]1C(=O)[C@@]2(C)[C@H]([C@H](OC(=O)c3ccccc3)[C@]3(O)C[C@H](OC(=O)[C@H](O)[C@@H](NC(=O)c4ccccc4)c4ccccc4)C(C)=C1C3(C)C)[C@]1(OC(C)=O)CO[C@@H]1C[C@@H]2O [paclitaxel]																	1.5	200	
